Non-standard residues stand in square brackets, D forms with d. Residues, ends and D or L forms follow the SMILES beside them. *: point of attachment. Sta = CC(C)C[C@H](N)[C@@H](O)CC(=O)O; Isovaleryl = CC(C)CC(=O)*
Legend:
[1] = test system: peptidases in conditioned media from pancreatic ductal adenocarcinoma cells; assay type: biochemical, mouse; settings: media pre-treated 30 minutes at room temperature with 1 μM E64, 1 μM 1,10-Phenanthroline or 400 nM pepstatin; pH 5.2; within 1200 minutes
Granzyme B = settings: fluorescent substrate containing the sequence; previous studies; cited from earlier work

**Q.** Which “effect on cleavage sites / cleavage signature of conditioned media” value [1] does the source give for `CC(C)C[C@H](NC(=O)[C@H]1O[C@@H]1C(=O)O)C(=O)NCCCCN=C(N)N` [E-64] here?
**A.** Its value is “majority of cleavage sites remained unchanged”.

**Q.** With VVAD↓SSMES as the molecule, how does the “catalytic efficiency (kcat/KM)” value (Granzyme B) read?
**A.** The value was 116,000 M^−1 s^−1.

**Q.** For `c1cnc2c(c1)ccc1cccnc12` [1,10-phenanthroline], which “effect on cleavage sites / cleavage signature of conditioned media” value [1] is on record?
**A.** The value was “majority of cleavage sites remained unchanged”.

**Q.** For `CC(C)CC(=O)N[C@H](C(=O)N[C@H](C(=O)N[C@@H](CC(C)C)[C@@H](O)CC(=O)N[C@@H](C)C(=O)N[C@@H](CC(C)C)[C@@H](O)CC(=O)O)C(C)C)C(C)C` [pepstatin] (Isovaleryl-VV[Sta]A[Sta]-OH), which “effect on cleavage sites / cleavage signature of conditioned media” value [1] is on record?
**A.** The value was “completely altered the cleavage signature”.
